Test results: US10758620B2, “Potentiated antimicrobial agents” (SEPTEOS, priority 2014, dated 2020)
Read-outs that look alike come from different tables or passages of the source.

Key:
Type in all cases: cell-based
[1] = test system: Pseudomonas aeruginosa; test: MIC measurement in agar medium (dilution test), Pyo; conditions: potentiator alone
Source text: (§1) Inhibitory minimum concentration measurement tests are made in a solid agar medium according to international standards in force (CLSI M7-A9 Jan 12 standards): dispersion of the compounds to be tested in a Mueller Hinton gelose. An adaptation relating to the hydrophobicity of compounds and compositions is however necessary to disperse them in the medium: dilution of the compounds in a solvent. The compounds and compositions incorporated in the agar medium can be diluted beforehand in one or more solvents (Tween® 80 diluted with water, Tween® 80 diluted with […], DMSO diluted with water). The strains are deposited onto the agar surface with a steers apparatus. In the examples, different dissolution methods for products are tested in parallel to circumvent the problems of water/solvent distribution coefficient of the molecules (antimicrobial and potentiator) whereas the bacteria grow only in the aqueous phase. The technical requirement will not intervene in in vivo tests. The same dilution methods can be implemented in a liquid medium (microplates and tubes). The same methodology is implemented with fungi. […] MIC measurement: the minimum inhibitory concentration measurement tests are made in an agar solid medium according to international standards in force (CLSI standards), according to the previously defined protocol. […] The booster contribution as compared with the MIC of the antibiotic alone is expressed in a (MIC ATB)/(MIC ATB+booster) ratio. Thereby, gains are defined: […]

[2] = test system: Escherichia coli; test: MIC measurement in agar medium (dilution test), Coli; conditions: potentiator alone
Source text: as §1

[3] = test system: Staphylococcus; test: MIC measurement in agar medium (dilution test), Staph; conditions: potentiator alone
Source text: as §1

[4] = test system: bacterial strains (Pyo, Coli, Staph); test: MIC measurement in agar medium, tested bacterial strains overall; conditions: compound alone, depending on the strains
Source text: Inhibitory minimum concentration measurement tests are made in a solid agar medium according to international standards in force (CLSI M7-A9 Jan 12 standards): dispersion of the compounds to be tested in a Mueller Hinton gelose. An adaptation relating to the hydrophobicity of compounds and compositions is however necessary to disperse them in the medium: dilution of the compounds in a solvent. The compounds and compositions incorporated in the agar medium can be diluted beforehand in one or more solvents (Tween® 80 diluted with water, Tween® 80 diluted with […], DMSO diluted with water). The strains are deposited onto the agar surface with a steers apparatus. In the examples, different dissolution methods for products are tested in parallel to circumvent the problems of water/solvent distribution coefficient of the molecules (antimicrobial and potentiator) whereas the bacteria grow only in the aqueous phase. The technical requirement will not intervene in in vivo tests. The same dilution methods can be implemented in a liquid medium (microplates and tubes). The same methodology is implemented with fungi. MIC measurement: the minimum inhibitory concentration measurement tests are made in an agar solid medium according to international standards in force (CLSI standards), according to the previously defined protocol. […] [table]

[5] = test system: E. Coli Strain 8150; test: Etest, E. Coli Strain 8150; conditions: for MIC: Escherichia coli, read-out: MIC of Pipera tazo, Strain 8150; for MIC of Meropenem / MIC of Tigecycline / MIC of Pipera tazo: Strain 8150
Source text: The corresponding tests are made based on the usual MIC test: the Etest® (Biomerieux) strip is deposited onto the surface of a seeded agar medium in which the booster has been incorporated. This test enables solvent effect risks, that is a possible interaction with the solvent used in vitro, to be minimised.
The control corresponds to the test made without cineol. A control is made in each solvent tested: distilled water, Tween/water and DMSO.
ED control=antibiotic alone in distilled water
DMSO control=antibiotic alone in DMSO
TE control=antibiotic alone in Tween® 80

[6] = test system: Strain 09003, methicillin resistant S. aureus (MRSA); test: Resistance test (resistant mutants), Strain 09003; conditions: MRSA, text after Table 15
Description: After 48 h incubation, the presence or absence of colonies likely to be resistant mutants is observed.
ED control or DMSO=only distilled water or DMSO is added
Ciprofloxacine DMSO: addition of Ciprofloxacine in DMSO

[7] = test system: Strain 10168 SARM; test: Growth test in liquid medium; conditions: compound at a very low dose
Source text: The growth tests are made in a liquid medium with prior dispersing the antibiotic booster in a suitable solvent (tween/water).
4XMIC means that the concentration of antibiotic is 4 times higher than its MIC, measured when used alone on the strain considered.

[8] = test system: methicillin resistant S. aureus (MRSA) strains 09003, 10168; test: MIC of the potentiator used alone on the strains of Examples 3 and 4; conditions: Staphylococcus aureus, on these strains
[9] = booster 1 mg/L in agar, Tween/water
[10] = booster 4 mg/L in agar, Tween/water
[11] = booster 16 mg/L in agar, Tween/water

Structure (SMILES): O=C(OCc1ccccc1)c1ccccc1 [BB, benzyl benzoate]
- MIC 50 ([1]; solvent DMSO): 1.00%
- MIC 90 ([1]; solvent DMSO): 1.00%
- MIC 50 ([1]; solvent Tween/prop glyc): >1%
- MIC 90 ([1]; solvent Tween/prop glyc): >1%
- MIC 50 ([1]; solvent Tween/water): >1%
- MIC 90 ([1]; solvent Tween/water): >1%
- MIC 50 ([1]; solvent water/water): >1%
- MIC 90 ([1]; solvent water/water): >1%
- MIC 50 ([2]; solvent DMSO): >1%
- MIC 90 ([2]; solvent DMSO): >1%
- MIC 50 ([2]; solvent Tween/prop glyc): >1%
- MIC 90 ([2]; solvent Tween/prop glyc): >1%
- MIC 50 ([2]; solvent Tween/water): >1%
- MIC 90 ([2]; solvent Tween/water): >1%
- MIC 50 ([2]; solvent water/water): >1%
- MIC 90 ([2]; solvent water/water): >1%
- MIC 50 ([3]; solvent DMSO): 1.00%
- MIC 90 ([3]; solvent DMSO): 1.00%
- MIC 50 ([3]; solvent Tween/prop glyc): >1%
- MIC 90 ([3]; solvent Tween/prop glyc): >1%
- MIC 50 ([3]; solvent Tween/water): >1%
- MIC 90 ([3]; solvent Tween/water): >1%
- MIC 50 ([3]; solvent water/water): >1%
- MIC 90 ([3]; solvent water/water): >1%
- MIC [4]: > 10000 µg/mL
- MIC ([5]; booster 1 mg/L in agar, DMSO): 0.75 µg/mL
- MIC [5, 9]: 1.5 µg/mL
- MIC ([5]; booster 4 mg/L in agar, DMSO): 1 µg/mL
- MIC [5, 10]: 1 µg/mL
- MIC ([5]; booster 16 mg/L in agar, DMSO): 1 µg/mL
- MIC [5, 11]: 1.5 µg/mL
- MIC of Meropenem ([5]; booster 1 mg/L in agar, DMSO): 0.047 µg/mL
- MIC of Tigecycline ([5]; booster 1 mg/L in agar, DMSO): 0.125 µg/mL
- MIC of Meropenem [5, 9]: 0.094 µg/mL
- MIC of Tigecycline [5, 9]: 0.125 µg/mL
- MIC of Meropenem ([5]; booster 4 mg/L in agar, DMSO): 0.064 µg/mL
- MIC of Tigecycline ([5]; booster 4 mg/L in agar, DMSO): 0.094 µg/mL
- MIC of Meropenem [5, 10]: 0.064 µg/mL
- MIC of Tigecycline [5, 10]: 0.19 µg/mL
- MIC of Meropenem ([5]; booster 16 mg/L in agar, DMSO): 0.094 µg/mL
- MIC of Tigecycline ([5]; booster 16 mg/L in agar, DMSO): 0.125 µg/mL
- MIC of Meropenem [5, 11]: 0.094 µg/mL
- MIC of Tigecycline [5, 11]: 0.094 µg/mL
- occurrence of mutants on addition of the compound to ciprofloxacine [6]: does not cause the occurrence of mutants any longer
- effect of the compound on bactericidal rate of Augmentin [7]: enables the bactericidal rate of Augmentin® to be accelerated
- MIC [8]: > 10000 µg/mL

Structure (SMILES): CC(=O)OCC=Cc1ccccc1 [AC, cinnamyl acetate]
- MIC 50 ([1]; solvent DMSO): 1.00%
- MIC 90 ([1]; solvent DMSO): 1.00%
- MIC 50 ([1]; solvent Tween/prop glyc): >1%
- MIC 90 ([1]; solvent Tween/prop glyc): >1%
- MIC 50 ([1]; solvent Tween/water): >1%
- MIC 90 ([1]; solvent Tween/water): >1%
- MIC 50 ([1]; solvent water/water): >1%
- MIC 90 ([1]; solvent water/water): >1%
- MIC 50 ([2]; solvent DMSO): 1.00%
- MIC 90 ([2]; solvent DMSO): 1.00%
- MIC 50 ([2]; solvent Tween/prop glyc): >1%
- MIC 90 ([2]; solvent Tween/prop glyc): >1%
- MIC 50 ([2]; solvent Tween/water): >1%
- MIC 90 ([2]; solvent Tween/water): >1%
- MIC 50 ([2]; solvent water/water): >1%
- MIC 90 ([2]; solvent water/water): >1%
- MIC 50 ([3]; solvent DMSO): 1.00%
- MIC 90 ([3]; solvent DMSO): 1.00%
- MIC 50 ([3]; solvent Tween/prop glyc): >1%
- MIC 90 ([3]; solvent Tween/prop glyc): >1%
- MIC 50 ([3]; solvent Tween/water): >1%
- MIC 90 ([3]; solvent Tween/water): >1%
- MIC 50 ([3]; solvent water/water): >1%
- MIC 90 ([3]; solvent water/water): >1%
- MIC [4]: > 10000 µg/mL
- MIC ([5]; booster 1 mg/L in agar, DMSO): 0.75 µg/mL
- MIC [5, 9]: 0.5 µg/mL
- MIC of Meropenem ([5]; booster 1 mg/L in agar, DMSO): 0.023 µg/mL
- MIC of Tigecycline ([5]; booster 1 mg/L in agar, DMSO): 0.064 µg/mL
- MIC of Meropenem [5, 9]: 0.016 µg/mL
- MIC of Tigecycline [5, 9]: 0.064 µg/mL
- MIC of Meropenem ([5]; booster 4 mg/L in agar, DMSO): <
- MIC of Pipera tazo ([5]; booster 4 mg/L in agar, DMSO): <
- MIC of Tigecycline ([5]; booster 4 mg/L in agar, DMSO): <
- MIC of Meropenem [5, 10]: <
- MIC of Pipera tazo [5, 10]: <
- MIC of Tigecycline [5, 10]: <
- MIC of Meropenem ([5]; booster 16 mg/L in agar, DMSO): <
- MIC of Pipera tazo ([5]; booster 16 mg/L in agar, DMSO): <
- MIC of Tigecycline ([5]; booster 16 mg/L in agar, DMSO): <
- MIC of Meropenem [5, 11]: <
- MIC of Pipera tazo [5, 11]: <
- MIC of Tigecycline [5, 11]: <
- occurrence of mutants on addition of the compound to ciprofloxacine [6]: does not cause the occurrence of mutants any longer
- effect of the compound on bactericidal rate of Augmentin [7]: enables the bactericidal rate of Augmentin® to be accelerated
- MIC [8]: > 10000 µg/mL
